Patent US11453667B2, “Pyridone-pyrimidine derivative acting as KRASG12C mutein inhibitor” (MEDSHINE DISCOVERY INC., priority 2018, dated 2022)
Read-outs that look alike come from different tables or passages of the source.

Experiments:
[1] = Rat pharmacokinetic evaluation experiment; format: in vivo; conditions: plasma, male SD rats; for AUC: read-out: AUC (exposure)
Excerpt: To determine the drug concentrations in plasma at different times after intravenous and intragastric administration of the test compounds to the rats by using the LC/MS/MS method and using male SD rats as the test animals; To study the pharmacokinetic behaviors of the test compounds in rats and to evaluate the pharmacokinetic characteristics thereof.
Experiment scheme: 10 healthy adult male SD rats were used as experimental animals and divided into 4 groups according to the principle of similar body weight, with 2 in each group of the group IV (two groups) and 3 in each group of the group PO (two groups). The animals were purchased from Beijing Vital River Laboratory Animal Technology Co., Ltd.
Group IV: an appropriate amount of samples were weighed; an appropriate amount of DMSO, PEG400 and water were added successively thereto according to the volume ratio of 10:60:30; and stirring was performed under sonication to reach a clear state of 1.5 mg/mL.
Group PO: an appropriate amount of samples were weighed; an appropriate amount of DMSO, PEG400 and water were added successively thereto according to the volume ratio of 10:60:30; and stirring was performed under sonication to reach a clear state of 1.0 mg/mL.
After fasting overnight, each rat in the group IV was administered intravenously with a volume of 2 mL/kg and a dose of 3 mg/kg; each rat in the group PO was administered intragastrically with a volume of 10 mL/kg and a dose of 10 mg/kg.
After each of the male SD rats in the group IV was administrated with the test compounds, 200 ul of blood samples were collected at 0.0833, 0.25, 0.5, 1, 2, 4, 6, 8 and 24 hours, and were placed in a commercial anticoagulation tube pre-loaded with EDTA-K2. After each rat in the group PO was administrated with the test compounds, 200 ul of blood samples were collected at 0.25, 0.5, 1, 2, 4, 6, 8 and 24 hours respectively, and were placed in a commercial anticoagulation tube pre-loaded with EDTA-K2. The test tube was centrifuged for 15 minutes to separate the plasma and stored at −60° C. 2 hours after administration, the animals can be fed. The content of the test compounds in plasma was determined by the LC/MS/MS method after intravenous and intragastric administration to the rats. The linear range of the method was from 2.00 to 6000 nM; plasma samples were analyzed after treatment of precipitating proteins by acetonitrile.
Note: Cl: clearance rate; Vd: volume of distribution; AUC: exposure; T1/2: half-life; Cmax: maximum compound concentration after oral administration; Tmax: time to reach Cmax; F: bioavailability.

[2] = test system: NCI-H358 human non-small cell lung cancer cells with KRAS G12C mutation; assay: Cell experiment: anti-proliferative activity, CellTiter-Glo, NCI-H358; format: cell-based; conditions: Homo sapiens, NCI-H358, 120 h, 5 days culture
Protocol: This experiment is intended to verify that the compounds of the present invention have an inhibitory effect on the proliferation of NCI-H358 human non-small cell lung cancer cells with KRAS G12C mutation, MIA PaCa2 human pancreatic cancer cells with KRAS G12C mutation and wild-type A375 human malignant melanoma cells.
40 μl of phosphate buffer was added to the peripheral wells of three 384-well microplates respectively, and 40 μl of cell suspension to be tested was added to the other wells of each plate respectively (plate 1: NCI-H358 cell suspension containing 500 NCI-H358 cells; plate 2: MIAPaCa2 cell suspension containing 300 MIAPaCa2 cells; plate 3: A375 cell suspension containing 300 A375 cells). The three cell plates were then placed in a carbon dioxide incubator and incubated overnight. Echo was used to perform a 3-fold gradient dilution of the compounds to be tested, and each compound was diluted with 10 concentration gradients (diluted from 50 μM to 0.003 μM), 100 nl of which was respectively added to the corresponding wells of the cell plates; after dosing, 40 μL of phosphate buffer was added to each well of rows A and P and columns 1 and 24, and then the cell plates were put back to the carbon dioxide incubator for culturing for 5 days. 20 μl of Promega CellTiter-Glo reagent per well was added to the cell plates, which was shaken at room temperature for 10 minutes in the dark to stabilize the luminescence signal. A PerkinElmer Envision multi-label analyzer was used for reading.
Data analysis: IC50 results were analyzed by GraphPad Prism 5.0 software […].

[3] = test system: human pancreatic cancer x-MIA-PaCa2 cell; assay: In vivo drug efficacy test (3): subcutaneous xenograft tumor model; parameters: species or system NU/NU mice; conditions: 50 mg/kg
Protocol: To evaluate the in vivo efficacy of the test compounds in a subcutaneous xenograft tumor model of human pancreatic cancer x-MIA-PaCa2 cell.
NU/NU mice, female, 6-8 weeks old, weighing 17-20 grams. A total of 100 were required (additional 30% of animals were inoculated). They were provided by Beijing Vital River Science and Technology Co., Ltd. Each mouse was subcutaneously inoculated with 0.2 mL (10×10^6) of x-MIA-PaCa2 cells (plus matrigel, with the volume ratio being 1:1) on the right back. When the average tumor volume reached about 150 mm^3, grouping and administration were performed, and the administration dose was shown in Table 7. The diameter of the tumor was measured with vernier calipers twice a week. The formula for calculating the tumor volume is: V=0.5a×b^2, wherein a and b represent the long and short diameters of the tumor, respectively. The tumor suppressive effect of the compounds was evaluated by TGI (%). TGI (%) reflects the tumor growth inhibition rate. Calculation of TGI (%): TGI (%)=[(1−(average tumor volume at the end of administration in a treatment group−average tumor volume at the beginning of administration in the treatment group))/(average tumor volume at the end of treatment in the solvent control group−average tumor volume at the beginning of treatment in the solvent control group)]×100%.

AUC ([1]; IV 3 mg/kg): 4.62 µM·h
clearance ([1]; IV 3 mg/kg, read-out: Cl (clearance rate)): 20.6 mL/min/kg
half-life ([1]; IV 3 mg/kg, read-out: T1/2 (half-life) (converted)): 0.94 h
Vd ([1]; IV 3 mg/kg, read-out: Vd (volume of distribution)): 2.15 L/kg
Cmax ([1]; PO 10 mg/kg): 2110 nM
Tmax ([1]; PO 10 mg/kg): 1.67 h
AUC ([1]; PO 10 mg/kg): 7.74 µM·h
bioavailability ([1]; PO 10 mg/kg, read-out: F (bioavailability)): 52%
IC50 [2]: 50 nM
SMILES: C=CC(=O)N1CCN(c2ncnc3c(=O)n(-c4c(N)c(Cl)cc(Cl)c4F)c(C(F)(F)F)cc23)CC1 [Example 49]
Tumor volume (day 14) [3]: 204 mm^3
TGI ([3]; day 14): 96.77%
